# Entries after “also recorded” stand apart in the source; their conditions may differ. Read-outs that look alike come from different tables or passages of the source.
# Columns and labels:
# LAZ 388 cells = assay: Migration (chemotaxis) of LAZ 388 EBV-transformed B cells; assay type: cell-based, human
# COS (Vector Control) = assay: cAMP accumulation in COS cells (vector control); assay type: cell-based, monkey
# LAZ 221 cells [1] = assay: Flow cytometry of surface molecule expression on LAZ 221 cells; assay type: cell-based, human
# Method: FIG. 4, Panels A-C. […] Data are presented as mean fluorescence intensities measured for 10,000 cells labeled with anti-CD9 or CD10 mAb. In Panel A, the NALM 6 Cells were incubated with MET-ENK (10^-7 M) for the times indicated. In Panel B, the LAZ 221 cells were incubated with MET-ENK at the doses indicated for 5 minutes at 37° C. […] The anti-CD9 and anti-CD10 mAb used for these experiments were of the IgG2a isotype.
# Immunofluorescence Staining and Flow Cytometric Analysis of Cell Surface Molecules: Cells were resuspended at 1×10^6 /ml in PBS and then incubated for periods of 5 to 120 minutes at 37° C. with MET-ENK at doses of 0 to 10^-5 M. Incubations were terminated by transferring samples to an ice bath and then pelleting the cells by centrifugation at 1800 rpm for 5 minutes at 4° C.
# Immunofluorescence staining was carried out in 4-ml tubes maintained in an ice water bath. […] Cells were subsequently fixed within a 2% solution of formalin and maintained in the dark at 10° C. until analyzed.
# Flow cytometric analysis was performed using a FACS SCAN Flow Cytometer (Becton Dickinson, Mountain View, Calif.) equipped with a HP9000 Series computer and the Lysys System software analysis package. Data were collected as histograms depicting the fluorescence intensity for 5,000 to 10,000 cells per sample.
# The non-binding IgG1 MOPC myeloma protein, anti-macrophage/monocyte specific CD14 (MO2; IgG2) and anti-T cell specific CD3 (OKT3; IgG2a) mAb were employed as nonreactive controls for measuring the autofluorescence of B cells.
# Jurkat cells = assay: [Ca^2+ ]i response of Jurkat cells (Indo-1, flow cytometry); assay type: cell-based, human
# Method: FIG. 14, Panel A and B. Methionine enkephalin and opiate receptor agonists selective for […] stimulate transmembrane signaling in Jurkat cells. Cells were labeled with Indo-1, washed twice in serum-free medium and held at 4° C. until analyzed. Indo-1 fluorescence was measured using flow cytometry as previously described (Heagy et al., 1992; Ledbetter et al., 1987; Chang et al., 1989; Rabinovitch et al., 1986). The fluorescence for nonstimulated cells (measured in medium, alone) was arbitrarily set at 1.0. Data are presented as per cent increase in the response [(r-baseline) x 100%]. Baseline [Ca^2+ ]i value measured for Jurkat cells (n=4) was 80±40 nM. Baseline Panel A, Jurkat cell response to MET-ENK (0.1 nM, 10 nM and 1 μM) and to the d- selective agonist Dermenkephalin (10 nM). Panel B, Jurkat cell response to the d- selective agonist (D-Pen ^2,5, p Cl-Phe^4)-ENK (0.1 nM. 10 nM. 1 μM).
# The inventors (Heagy et al., 1992) have previously shown that when applied to NALM 6 cells the κ-1 agonist U69,953 stimulates a rapid increase in [Ca^2+ ]i. […] In order to determine whether the sites the inventors have identified using the δ-selective agonists also elicit Ca^2+ responses the inventors measured the effects of opioid peptides and δ-selective agonists on the calcium response. […] These studies provide evidence that Jurkat cells have functional δ opiate receptor sites which stimulate transmembrane signaling via rapid increases in [Ca^2+ ]i.
# EBI1 = target: T1, EBI1 (Homo sapiens, UniProt P32248)
# T1 sequence (P32248 25-378): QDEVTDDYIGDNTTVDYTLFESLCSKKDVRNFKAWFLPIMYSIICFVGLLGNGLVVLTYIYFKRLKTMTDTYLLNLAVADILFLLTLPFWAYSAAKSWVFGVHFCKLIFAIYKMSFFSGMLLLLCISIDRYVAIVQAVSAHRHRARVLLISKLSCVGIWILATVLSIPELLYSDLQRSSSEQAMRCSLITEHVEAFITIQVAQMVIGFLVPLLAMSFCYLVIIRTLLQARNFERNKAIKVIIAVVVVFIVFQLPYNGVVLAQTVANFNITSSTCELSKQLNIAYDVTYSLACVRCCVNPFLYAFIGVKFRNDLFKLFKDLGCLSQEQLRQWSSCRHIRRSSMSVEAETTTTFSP
# PBMC = conditions: cited from earlier work
# LAZ 221 cells [2] = assay: Migration (chemotaxis) of LAZ 221 pre-B ALL cells; assay type: cell-based, human; conditions: LAZ 221, peptide 100 nM; spontaneous locomotion 1886
# NALM 6 cells = assay: [Ca^2+ ]i response of NALM 6 / leukemia cells (Indo-1, flow cytometry); assay type: cell-based, human
# Method: FIG. 15, Panels A-C. […] Cells were labeled with Indo-1 as previously described (Rabinovitch et al., 1986), washed twice in serum-free medium and held at 4° C. until flow cytometric analysis. The violet/blue fluorescence ratio was measured using previously described methods (Rabinovitch et al., 1986). Nonstimulated cells (measured in medium, alone) were used to establish a relative violet/blue ratio arbitrarily set at 1.0 as previously described (Rabinovitch). Calibration of [Ca^2+ ]i was carried out as previously described by Rabinovitch et al (1986) using the formula: [formula]
# Rmax values were determined by measuring the maximum shift in indo violet/blue fluorescence for cells treated with 4 μM ionomycin. Rmin was measured as the minimum ratio for the violet blue fluorescence of ionomycin treated cells following the addition of 8 mM EGTA. […] The Kd (effective dissociation constant) was set at 250 nM.
# human T cells = conditions: Heagy et al., 1990; cited from earlier work
# NK cells and lymphocytes = conditions: literature; cited from earlier work
# [3] = LAZ 221, 10^-7 M MET-ENK, untreated 1.0
# [4] = LAZ 221, 10^-7 M MET-ENK, untreated 1.7
smiles,measurement,setting,value
"CSCC[C@H](NC(=O)[C@H](Cc1ccccc1)NC(=O)CNC(=O)CNC(=O)[C@@H](N)Cc1ccc(O)cc1)C(=O)O [MET-ENK, Tyr-Gly-Gly-Phe-Met]",cell migration (cell counts),"LAZ 388 cells; LAZ 388, peptide 100 nM, spontaneous locomotion 1938",1986 cell counts
same,migration of LAZ 388 cells,LAZ 388 cells; LAZ 388 vs spontaneous locomotion,equivalent to their spontaneous locomotion
same,cAMP,"COS (Vector Control); COS (Vector Control), MET-ENK 0.01 nM, naloxone 10 μM, forskolin 0.1 μM, controls 40.2 and 38.8",31.6 fmoles/cell × 10^3
same,"effect on cAMP, mock transfected controls",COS (Vector Control); COS transfected with vector alone,no effect on the cAMP produced in mock transfected controls
same,surface expression of CD9,LAZ 221 cells [1]; LAZ 221,transient increase in their surface expression of CD9 but not CD10 molecules
same,CD2 (LFA-2) fluorescence ratio,"LAZ 221 cells [1]; LAZ 221, 10^-7 M MET-ENK, untreated 0.9",1.0
same,CD4 fluorescence ratio,LAZ 221 cells [1]; [3],1.0
same,CD11a (LF1α) fluorescence ratio,LAZ 221 cells [1]; [3],1.1
same,CD18 (Integrin β chain) fluorescence ratio,LAZ 221 cells [1]; [3],1.1
same,CD20 fluorescence ratio,LAZ 221 cells [1]; [3],1.1
same,CD11b (Mac 1) fluorescence ratio,"LAZ 221 cells [1]; LAZ 221, 10^-7 M MET-ENK, untreated 1.4",1.5
same,CD54 (ICAM-1) fluorescence ratio,"LAZ 221 cells [1]; LAZ 221, 10^-7 M MET-ENK, untreated 1.5",1.5
same,CD19 fluorescence ratio,LAZ 221 cells [1]; [4],1.9
same,CD29 (VLA-β chain) fluorescence ratio,LAZ 221 cells [1]; [4],1.9
same,CD58 (LFA-3) fluorescence ratio,LAZ 221 cells [1]; [4],1.9
same,VLA-β; DE9N fluorescence ratio,"LAZ 221 cells [1]; LAZ 221, 10^-7 M MET-ENK, untreated 5.8",5.6
same,lowest dose increasing CD9 expression,"LAZ 221 cells [1]; LAZ 221, 5 minutes at 37° C.",10^-11 M
same,[Ca^2+ ]i response,Jurkat cells,elicited a rapid rise in [Ca^2+ ]i
same,cAMP,EBI1,109.6 fmoles/cell × 10^3
same,blastogenic responses to T and B cell lectins,PBMC; PBMC,augment the blastogenic responses of PBMC to both T and B cell lectins
same,IFN-γ production,PBMC; lectin stimulated PBMC,enhance IFN-γ production
same,cell migration (cell counts),LAZ 221 cells [2],6199 cell counts
same,[Ca^2+ ]i response,NALM 6 cells,rapid rise in the concentration of free intracellular Ca2+; also recorded: rapid rise in [Ca^2+ ]i
same,[Ca^2+ ]i response,NALM 6 cells; listed as methionine-enkephalin,concentration dependent rise in [Ca^2+ ]i
same,human T cell migration,human T cells,potent stimulants for the migration of isolated human T cells
same,"NK cell activity, lymphocyte proliferation, antibody production",NK cells and lymphocytes,"diminish NK cell activity, decrease lymphocyte proliferation, and inhibit antibody production"
